Test results from PubChem BioAssay AID256 (DTP/NCI, 2004).
Where “and” joins values, the source holds several entries; their conditions need not be identical. Equal entries are not always repeated. Toxic doses and inconclusive results are not listed.

System: CD2F1 mice, L1210 leukemia ip, survival T/C
Assay: NCI In Vivo Anticancer Drug Screen. Data for tumor model L1210 Leukemia (intraperitoneal) in CD2F1 (CDF1) mice
Details: endpoint: mean survival time, higher = longer survival
Method in brief: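 In this screen, transplantable tumors were grown in mice given either the compound or its vehicle. Results were expressed as the treated measurement relative to the control measurement.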

[1] = dose: 20.0 mg/kg/injection, schedule: Q01DX001 (ip), vehicle: saline
[2] = dose: 40.0 mg/kg/injection, schedule: Q01DX001 (ip), vehicle: saline
[3] = dose: 50.0 mg/kg/injection, schedule: Q01DX009 (ip), vehicle: saline
[4] = dose: 100.0 mg/kg/injection, schedule: Q01DX001 (ip), vehicle: saline
[5] = dose: 100.0 mg/kg/injection, schedule: Q01DX009 (ip), vehicle: saline
[6] = dose: 100.0 mg/kg/injection, schedule: Q04DX003 (ip), vehicle: saline
[7] = dose: 200.0 mg/kg/injection, schedule: Q01DX001 (ip), vehicle: saline
[8] = dose: 200.0 mg/kg/injection, schedule: Q01DX009 (ip), vehicle: saline
[9] = dose: 100.0 mg/kg/injection, schedule: Q04DX003 (ip), vehicle: saline with Tween-80
[10] = dose: 200.0 mg/kg/injection, schedule: Q04DX003 (ip), vehicle: saline with Tween-80
[11] = dose: 400.0 mg/kg/injection, schedule: Q04DX003 (ip), vehicle: saline with Tween-80
[12] = dose: 100.0 mg/kg/injection, schedule: Q04DX002 (ip), vehicle: saline with Tween-80
[13] = dose: 200.0 mg/kg/injection, schedule: Q04DX002 (ip), vehicle: saline with Tween-80
[14] = dose: 400.0 mg/kg/injection, schedule: Q04DX002 (ip), vehicle: saline with Tween-80

## CS(=O)(=O)OCCCN(CCCOS(C)(=O)=O)CCCN1CCOCC1
dose: 10.0 mg/kg/injection, schedule: Q01DX009 (ip), vehicle: saline
  T/C: 197 % of control
dose: 12.0 mg/kg/injection, schedule: Q01DX001 (ip), vehicle: saline
  T/C: 118 % of control
dose: 12.5 mg/kg/injection, schedule: Q04DX003 (ip), vehicle: saline
  T/C: 122 % of control
[1]
  T/C: 150 % of control
dose: 20.0 mg/kg/injection, schedule: Q01DX005 (ip), vehicle: saline
  T/C: 152 % of control
dose: 20.0 mg/kg/injection, schedule: Q01DX009 (ip), vehicle: saline
  T/C: 230 % of control
dose: 20.0 mg/kg/injection, schedule: Q02DX003 (ip), vehicle: saline
  T/C: 152 % of control
dose: 20.0 mg/kg/injection, schedule: Q04DX003 (ip), vehicle: saline
  T/C: 156 % of control
[2]
  T/C: 200 % of control
dose: 40.0 mg/kg/injection, schedule: Q01DX005 (ip), vehicle: saline
  T/C: 182 % of control
dose: 40.0 mg/kg/injection, schedule: Q01DX009 (ip), vehicle: saline
  T/C: 238 % of control
dose: 40.0 mg/kg/injection, schedule: Q02DX003 (ip), vehicle: saline
  T/C: 166 % of control
[3]
  T/C: 180 % of control
dose: 50.0 mg/kg/injection, schedule: Q04DX003 (ip), vehicle: saline
  T/C: 122 % of control
dose: 60.0 mg/kg/injection, schedule: Q01DX001 (ip), vehicle: saline
  T/C: 159 % of control
dose: 60.0 mg/kg/injection, schedule: Q01DX005 (ip), vehicle: saline
  T/C: 189 % of control
dose: 60.0 mg/kg/injection, schedule: Q01DX009 (ip), vehicle: saline
  T/C: 230 % of control
dose: 60.0 mg/kg/injection, schedule: Q02DX003 (ip), vehicle: saline
  T/C: 191 % of control
dose: 60.0 mg/kg/injection, schedule: Q04DX003 (ip), vehicle: saline
  T/C: 190 % of control
dose: 75.0 mg/kg/injection, schedule: Q04DX003 (ip), vehicle: saline
  T/C: 162 % of control
dose: 80.0 mg/kg/injection, schedule: Q01DX005 (ip), vehicle: saline
  T/C: 234 % of control
dose: 80.0 mg/kg/injection, schedule: Q01DX009 (ip), vehicle: saline
  T/C: 290 % of control
dose: 80.0 mg/kg/injection, schedule: Q02DX003 (ip), vehicle: saline
  T/C: 189 % of control
dose: 80.0 mg/kg/injection, schedule: Q04DX003 (ip), vehicle: saline
  T/C: 206 % of control
[4]
  T/C: 153 % of control and 265 % of control
dose: 100.0 mg/kg/injection, schedule: Q01DX005 (ip), vehicle: saline
  T/C: 281 % of control
[5]
  T/C: 190 % of control and 270 % of control
dose: 100.0 mg/kg/injection, schedule: Q02DX003 (ip), vehicle: saline
  T/C: 215 % of control
[6]
  T/C: 165 % of control and 236 % of control
dose: 150.0 mg/kg/injection, schedule: Q04DX003 (ip), vehicle: saline
  T/C: 197 % of control
[7]
  T/C: 234 % of control
[8]
  T/C: 105 % of control
dose: 200.0 mg/kg/injection, schedule: Q04DX003 (ip), vehicle: saline
  T/C: 228 % of control and 297 % of control

## NP(=O)(Oc1ccc([N+](=O)[O-])cc1)Oc1ccc([N+](=O)[O-])cc1
dose: 62.5 mg/kg/injection, schedule: Q01DX001 (ip), vehicle: other
  T/C: 97 % of control
dose: 125.0 mg/kg/injection, schedule: Q01DX001 (ip), vehicle: other
  T/C: 93 % of control
dose: 250.0 mg/kg/injection, schedule: Q01DX001 (ip), vehicle: other
  T/C: 97 % of control
dose: 500.0 mg/kg/injection, schedule: Q01DX001 (ip), vehicle: other
  T/C: 86 % of control

## Clc1cccc(-c2cc(-c3ccccc3)[nH]n2)c1
dose: 100.0 mg/kg/injection, schedule: Q01DX001 (ip), vehicle: saline sonified
  T/C: 95 % of control
dose: 200.0 mg/kg/injection, schedule: Q01DX001 (ip), vehicle: saline sonified
  T/C: 97 % of control
dose: 400.0 mg/kg/injection, schedule: Q01DX001 (ip), vehicle: saline sonified
  T/C: 97 % of control

## C[N+]1(C)CCOC(O)(c2ccc(-c3ccccc3)cc2)C1 (stereo unspecified)
dose: 3.13 mg/kg/injection, schedule: Q04DX002 (ip), vehicle: saline
  T/C: 98 % of control
dose: 6.25 mg/kg/injection, schedule: Q04DX002 (ip), vehicle: saline
  T/C: 91 % of control

## NC(=S)NC(=O)c1ccccc1
[9]
  T/C: 94 % of control
[10]
  T/C: 94 % of control
[11]
  T/C: 94 % of control

## C/C=C1\CN2CCC34c5ccccc5N5C(=O)CCC(C1CC23)C54 (stereo unspecified)
dose: 5.0 mg/kg/injection, schedule: Q01DX001 (ip), vehicle: saline
  T/C: 98 % of control
dose: 10.0 mg/kg/injection, schedule: Q01DX001 (ip), vehicle: saline
  T/C: 98 % of control
[1]
  T/C: 98 % of control
[2]
  T/C: 100 % of control

## O=[N+]([O-])c1ccc2c([N+](=O)[O-])ccc3c2c1CC3
[9]
  T/C: 100 % of control
[10]
  T/C: 109 % of control
[11]
  T/C: 97 % of control

## CC(=O)Oc1c(Br)cc2cc(Br)ccc2c1Br
[12]
  T/C: 90 % of control
[13]
  T/C: 98 % of control
[14]
  T/C: 98 % of control

## CCOC(=O)CC/C(C)=N\N(C)C
dose: 100.0 mg/kg/injection, schedule: Q01DX009 (ip), vehicle: saline with Tween-80
  T/C: 103 % of control
dose: 200.0 mg/kg/injection, schedule: Q01DX009 (ip), vehicle: saline with Tween-80
  T/C: 97 % of control
dose: 400.0 mg/kg/injection, schedule: Q01DX009 (ip), vehicle: saline with Tween-80
  T/C: 96 % of control

## CC(C)COCCCN
[6]
  T/C: 98 % of control

## O=C(O)CNC(=O)C(CN1CC(=O)OC1c1ccc([N+](=O)[O-])cc1)N1C(=O)c2ccccc2C1=O (stereo unspecified)
dose: 100.0 mg/kg/injection, schedule: Q04DX003 (ip), vehicle: saline sonified
  T/C: 92 % of control
dose: 200.0 mg/kg/injection, schedule: Q04DX003 (ip), vehicle: saline sonified
  T/C: 88 % of control
dose: 400.0 mg/kg/injection, schedule: Q04DX003 (ip), vehicle: saline sonified
  T/C: 92 % of control

## C=CCN(CC=C)N=Nc1ccc(C(N)=O)cc1
dose: 19.75 mg/kg/injection, schedule: Q01DX009 (ip), vehicle: Klucel (hydroxypropylcellulose) (HPC)
  T/C: 102 % of control
dose: 39.5 mg/kg/injection, schedule: Q01DX009 (ip), vehicle: Klucel (hydroxypropylcellulose) (HPC)
  T/C: 102 % of control
dose: 79.0 mg/kg/injection, schedule: Q01DX009 (ip), vehicle: Klucel (hydroxypropylcellulose) (HPC)
  T/C: 114 % of control and 110 % of control
dose: 118.0 mg/kg/injection, schedule: Q01DX009 (ip), vehicle: Klucel (hydroxypropylcellulose) (HPC)
  T/C: 100 % of control
dose: 177.0 mg/kg/injection, schedule: Q01DX009 (ip), vehicle: Klucel (hydroxypropylcellulose) (HPC)
  T/C: 112 % of control

## CN1Cc2c([nH]c3ccccc23)C(O)C1 (stereo unspecified)
dose: 75.0 mg/kg/injection, schedule: Q01DX001 (ip), vehicle: saline
  T/C: 98 % of control
dose: 150.0 mg/kg/injection, schedule: Q01DX001 (ip), vehicle: saline
  T/C: 106 % of control

## S=C(S)NC1CCCCC1
dose: 6.0 mg/kg/injection, schedule: Q04DX003 (ip), vehicle: saline with Tween-80
  T/C: 98 % of control
dose: 12.0 mg/kg/injection, schedule: Q04DX003 (ip), vehicle: saline with Tween-80
  T/C: 102 % of control
dose: 24.0 mg/kg/injection, schedule: Q04DX003 (ip), vehicle: saline with Tween-80
  T/C: 94 % of control

## CNC(=O)Nc1cc(C)ccc1OC
[3]
  T/C: 106 % of control
[5]
  T/C: 101 % of control
[8]
  T/C: 107 % of control

## Nc1ncc(CCS)c(=O)[nH]1
[4]
  T/C: 97 % of control
[7]
  T/C: 98 % of control

## NC(N)=NC(N)=Nc1cc(Cl)c(Cl)cc1Cl
[9]
  T/C: 96 % of control
[10]
  T/C: 96 % of control
[11]
  T/C: 98 % of control

## Cc1nnc2ncccn12
dose: 12.5 mg/kg/injection, schedule: Q01DX009 (ip), vehicle: saline
  T/C: 96 % of control and 102 % of control
dose: 25.0 mg/kg/injection, schedule: Q01DX009 (ip), vehicle: saline
  T/C: 96 % of control and 97 % of control
[3]
  T/C: 92 % of control and 96 % of control
[5]
  T/C: 95 % of control and 97 % of control
[8]
  T/C: 90 % of control and 96 % of control

## NC(=O)c1ccc([N+](=O)[O-])cc1Cl
[12]
  T/C: 102 % of control
[13]
  T/C: 94 % of control
[14]
  T/C: 94 % of control

## CCOC(=O)CC1CC(CN)(C(=O)OCC)CO1 (stereo unspecified)
[9]
  T/C: 95 % of control
[10]
  T/C: 95 % of control
[11]
  T/C: 100 % of control
